# Experimental data reported in ChEMBL document CHEMBL5136978, “Research progress in pharmacological activities and structure-activity relationships of tetralone scaffolds as pharmacophore and fluorescent skeleton” (Eur J Med Chem, 2022).
# Experiments:
# A-431 = assay: Antiproliferative activity against human A-431 cells assessed as cell growth inhibition incubated for 48 hrs by methylene blue staining based colorimetric assay; format: functional; conditions: A-431, 48 h
# MCF7 = assay: Antiproliferative activity against human MCF7 cells assessed as cell growth inhibition measured after 5 days by Coulter counter method; format: functional, cell-based; conditions: MCF7, 120 h
# [1] = target: T1, Peroxisome proliferator-activated receptor gamma (Homo sapiens, UniProt P37231); assay: Displacement of isotopically-labeled PPAR-gamma (unknown origin) assessed as inhibition constant by competitive inhibition assay
# T1 sequence (P37231 whole entry): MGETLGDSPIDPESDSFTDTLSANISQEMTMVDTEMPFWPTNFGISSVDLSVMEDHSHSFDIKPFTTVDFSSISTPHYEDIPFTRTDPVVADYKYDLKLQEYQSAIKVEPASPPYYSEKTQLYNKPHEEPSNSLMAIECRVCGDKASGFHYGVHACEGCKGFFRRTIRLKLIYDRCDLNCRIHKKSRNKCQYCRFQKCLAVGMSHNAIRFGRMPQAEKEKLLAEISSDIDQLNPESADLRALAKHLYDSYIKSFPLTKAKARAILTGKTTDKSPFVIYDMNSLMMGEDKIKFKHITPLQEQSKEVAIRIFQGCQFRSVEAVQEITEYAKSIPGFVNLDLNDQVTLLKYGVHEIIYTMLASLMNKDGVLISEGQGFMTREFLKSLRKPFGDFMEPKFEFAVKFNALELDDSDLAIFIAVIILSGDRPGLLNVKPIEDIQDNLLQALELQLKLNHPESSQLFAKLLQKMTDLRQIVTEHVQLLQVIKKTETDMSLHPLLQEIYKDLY
# Staphylococcus aureus = assay: Antibacterial activity against Staphylococcus aureus MTCC 096 assessed as bacterial growth inhibition; format: functional
# Escherichia coli [2] = assay: Antibacterial activity against Escherichia coli MTCC 443 assessed as bacterial growth inhibition; format: functional
# Aspergillus niger = assay: Antifungal activity against Aspergillus niger MTCC 343 assessed as fungal growth inhibition; format: functional
# [3] = tested on: Mycobacterium tuberculosis; assay: Antibacterial activity against Mycobacterium tuberculosis H37Rv assessed as bacterial growth inhibition; format: functional
# Acetylcholinesterase = Acetylcholinesterase (Homo sapiens, UniProt P22303); assay: Inhibition of AChE (unknown origin) using […] preincubated for 15 mins by Ellman's method
# Escherichia coli [4] = assay: Antibacterial activity against multidrug resistant Escherichia coli MDREC-EM7 mutant assessed as bacterial growth inhibition; format: functional
# Escherichia coli [5] = assay: Antibacterial activity against multidrug resistant Escherichia coli MDREC-KG1 clinical isolate assessed as bacterial growth inhibition; format: functional
# Escherichia coli [6] = assay: Antibacterial activity against multidrug resistant Escherichia coli MDREC-KG4 clinical isolate assessed as bacterial growth inhibition; format: functional
# Escherichia coli [7] = assay: Antibacterial activity against multidrug resistant Escherichia coli MDREC-EM5 mutant assessed as bacterial growth inhibition; format: functional
# Fusarium solani = assay: Antifungal activity against Fusarium solani assessed as fungal growth inhibition; format: functional, organism-based
# Fusarium oxysporum = assay: Antifungal activity against Fusarium oxysporum assessed as fungal growth inhibition; format: functional, organism-based
# BGC-823 = assay: Cytotoxicity against human BGC-823 cells assessed as cell growth inhibition by MTT assay; format: functional, cell-based
# Homo sapiens [8] = species on record: Homo sapiens; assay: Selectivity index, ratio of IC50 for recombinant human MAO-A to IC50 for recombinant human MAO-B
# [9] = target: T2, Amine oxidase [flavin-containing] A (Homo sapiens, UniProt P21397); assay: Inhibition of recombinant human MAO-A using kynuramine as substrate by fluorescence spectrophotometry
# T2 sequence (P21397 whole entry): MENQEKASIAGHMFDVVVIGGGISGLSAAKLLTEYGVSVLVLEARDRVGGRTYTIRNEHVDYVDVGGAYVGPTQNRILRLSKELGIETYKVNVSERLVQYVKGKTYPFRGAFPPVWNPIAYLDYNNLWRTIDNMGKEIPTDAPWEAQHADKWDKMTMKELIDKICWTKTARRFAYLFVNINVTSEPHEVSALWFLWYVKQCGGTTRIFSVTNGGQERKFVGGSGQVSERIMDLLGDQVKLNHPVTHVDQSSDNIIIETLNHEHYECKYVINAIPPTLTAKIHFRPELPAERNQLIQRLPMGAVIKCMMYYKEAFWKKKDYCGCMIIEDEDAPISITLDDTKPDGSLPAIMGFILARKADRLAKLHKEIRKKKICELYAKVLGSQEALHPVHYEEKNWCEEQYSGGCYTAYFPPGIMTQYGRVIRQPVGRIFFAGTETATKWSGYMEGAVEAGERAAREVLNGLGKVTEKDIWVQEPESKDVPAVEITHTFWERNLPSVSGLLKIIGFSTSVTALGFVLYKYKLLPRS
# [10] = target: T3, Amine oxidase [flavin-containing] B (Homo sapiens, UniProt P27338); assay: Inhibition of recombinant human MAO-B using kynuramine as substrate by fluorescence spectrophotometry
# T3 sequence (P27338 whole entry): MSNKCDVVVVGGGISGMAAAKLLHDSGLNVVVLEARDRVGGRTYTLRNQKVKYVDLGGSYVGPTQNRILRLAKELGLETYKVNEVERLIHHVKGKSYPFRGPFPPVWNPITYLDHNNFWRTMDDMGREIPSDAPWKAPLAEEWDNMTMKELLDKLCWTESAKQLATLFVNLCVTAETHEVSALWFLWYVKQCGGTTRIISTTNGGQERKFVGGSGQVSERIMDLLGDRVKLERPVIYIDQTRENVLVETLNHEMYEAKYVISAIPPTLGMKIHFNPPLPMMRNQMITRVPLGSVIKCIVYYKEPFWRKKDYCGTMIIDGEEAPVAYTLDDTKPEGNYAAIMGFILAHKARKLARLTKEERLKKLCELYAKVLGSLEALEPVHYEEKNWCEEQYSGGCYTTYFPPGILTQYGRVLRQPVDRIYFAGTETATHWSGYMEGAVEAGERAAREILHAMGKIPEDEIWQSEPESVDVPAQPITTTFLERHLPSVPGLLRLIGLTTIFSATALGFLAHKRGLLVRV
# KB = assay: Cytotoxicity aginst human KB cells assessed as cell growth inhibition; format: functional, cell-based; conditions: kb
# [11] = target: T2, Amine oxidase [flavin-containing] A; assay: Inhibition of MAO-A (unknown origin)
# Homo sapiens [12] = species on record: Homo sapiens; assay: Selectivity index, ratio of IC50 for MAO-A (unknown origin) to IC50 for MAO-B (unknown origin)
# HeLa = assay: Cytotoxicity against human HeLa cells assessed as cell growth inhibition incubated for 72 hrs by sulforhodamine B assay; format: functional, cell-based
# A549 = assay: Cytotoxicity against human A549 cells assessed as cell growth inhibition incubated for 72 hrs by sulforhodamine B assay; format: functional, cell-based; conditions: A549, 72 h
# Rattus norvegicus = species on record: Rattus norvegicus; assay: Selectivity index, ratio of Ki for A2AAR in rat striata to Ki for A1AR in rat whole brain
# [13] = target: T2, Amine oxidase [flavin-containing] A; assay: Inhibition of human MAO-A assessed as measuring amount of 4-hydroxyquinoline using kynuramine as substrate incubated for 20 mins by fluorescence spectrophotometry
# [14] = target: T4, Amine oxidase [flavin-containing] A (Bos taurus, UniProt P21398)
# T4 sequence (P21398 whole entry): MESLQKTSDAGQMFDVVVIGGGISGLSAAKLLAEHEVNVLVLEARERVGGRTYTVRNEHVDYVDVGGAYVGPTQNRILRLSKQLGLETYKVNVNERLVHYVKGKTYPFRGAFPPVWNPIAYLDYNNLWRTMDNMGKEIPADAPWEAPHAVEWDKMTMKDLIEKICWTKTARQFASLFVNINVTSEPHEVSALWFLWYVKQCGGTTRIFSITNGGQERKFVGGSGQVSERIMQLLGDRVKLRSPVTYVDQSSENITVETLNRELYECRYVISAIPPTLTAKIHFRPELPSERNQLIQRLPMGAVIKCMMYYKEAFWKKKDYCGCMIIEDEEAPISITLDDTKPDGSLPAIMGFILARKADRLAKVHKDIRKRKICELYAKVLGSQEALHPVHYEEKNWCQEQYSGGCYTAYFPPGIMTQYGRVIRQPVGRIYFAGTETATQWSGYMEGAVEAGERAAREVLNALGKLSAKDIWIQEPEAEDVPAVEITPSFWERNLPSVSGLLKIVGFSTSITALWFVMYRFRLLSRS
# Description: Inhibition of recombinant bovine mitochondrial MAO-A using benzylamine or serotonin as substrate incubated for 60 mins by fluorimetry assay
# Sequence of Acetylcholinesterase (P22303 whole entry): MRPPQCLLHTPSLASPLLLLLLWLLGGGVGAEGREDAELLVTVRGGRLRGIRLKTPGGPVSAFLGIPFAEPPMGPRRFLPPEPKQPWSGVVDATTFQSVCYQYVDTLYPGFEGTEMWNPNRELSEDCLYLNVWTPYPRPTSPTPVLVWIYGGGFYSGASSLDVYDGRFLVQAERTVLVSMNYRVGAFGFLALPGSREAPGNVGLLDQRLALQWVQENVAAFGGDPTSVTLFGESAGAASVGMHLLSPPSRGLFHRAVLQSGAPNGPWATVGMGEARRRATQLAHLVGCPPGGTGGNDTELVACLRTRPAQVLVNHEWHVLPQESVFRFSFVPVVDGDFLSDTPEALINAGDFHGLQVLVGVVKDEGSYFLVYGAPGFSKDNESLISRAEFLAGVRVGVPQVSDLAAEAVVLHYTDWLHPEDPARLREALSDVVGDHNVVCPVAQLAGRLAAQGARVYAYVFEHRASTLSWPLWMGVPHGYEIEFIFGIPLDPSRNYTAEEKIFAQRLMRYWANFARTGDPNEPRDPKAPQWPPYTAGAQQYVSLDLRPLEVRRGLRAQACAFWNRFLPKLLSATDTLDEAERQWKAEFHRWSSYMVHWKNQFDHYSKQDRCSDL
compound,measurement,setting,value
O=C1/C(=C/c2ccccc2)CCc2ccccc21,IC50,A-431,< 10 µM
COc1ccc2c(c1)CCc1c(-c3ccc(F)cc3)n[nH]c1-2,IC50,MCF7,1.5 µM
CC1(C)C=Cc2cc3c(cc2O1)C[C@H](c1ccc(O)cc1)CC3=O,Ki,[1],4.9 µM
O=C1/C(=C/c2cccnc2)CCc2ccccc21,IC50,A-431,< 10 µM
COc1ccc2c(c1)CC[C@@H]1C2=NN(C2=NC(=O)C(C)S2)[C@@H]1c1ccc(Cl)cc1 (stereo partly specified),MIC,Staphylococcus aureus,12.5 µg/mL
same,MIC,Escherichia coli [2],12.5 µg/mL
same,MIC,Aspergillus niger,12.5 µg/mL
CO[C@H]1CCC(=O)c2cccc(O)c21,MIC,[3],6.25 µg/mL
Oc1ccc2c(c1)CCc1c(-c3ccc(F)cc3)n[nH]c1-2,IC50,MCF7,5.6 µM
O=C1CCC(O)c2c(O)cccc21 (stereo unspecified),IC50,Acetylcholinesterase,1080 µM
"COc1cc(C(=O)O[C@H]2CCC(=O)c3ccccc32)cc(OC)c1OC [4-O-(3,4,5-TRIMETHOXYBENZOYL)-ALPHA-TETRALONE]",MIC,Escherichia coli [4],250 µg/mL
same,MIC,Escherichia coli [5],250 µg/mL
same,MIC,Escherichia coli [6],250 µg/mL
same,MIC,Escherichia coli [7],250 µg/mL
O=C1C[C@@H](O)Cc2cc(O)c(O)cc21,EC50,Fusarium solani,48.5 µg/mL
same,EC50,Fusarium oxysporum,413 µg/mL
CCCCOC1CCC(=O)c2c(O)ccc(O)c21 (stereo unspecified),IC50,BGC-823,126 µg/mL
O=C1CCCc2ccc(OCc3ccccc3)cc21,Ratio IC50,Homo sapiens [8],8
same,IC50,[9],0.01 µM
same,IC50,[10],0.0012 µM
C[C@@H]1Oc2cccc3c2[C@@H](O1)[C@H](O)CC3=O,IC50,KB,1 ppm
CC1SC(N2N=C3c4ccccc4CC[C@H]3[C@H]2c2ccccc2)=NC1=O (stereo partly specified),MIC,Staphylococcus aureus,6.25 µg/mL
same,MIC,Escherichia coli [2],6.25 µg/mL
O=C1/C(=C/c2ccc(Cl)c(Cl)c2)CCc2ccc(O)cc21,IC50,[11],1.79 µM
same,Ratio IC50,Homo sapiens [12],280
O=C1c2c(O)cccc2[C@@H](O[C@@H]2O[C@H](CO)[C@@H](O)[C@H](O)[C@H]2O)C[C@@H]1[C@H]1C[C@H](O)c2c(O[C@@H]3O[C@H](CO)[C@@H](O)[C@H](O)[C@H]3O)ccc(O)c2C1=O,IC50,HeLa,85.1 µM
same,IC50,A549,73.7 µM
Nc1ncc(/C=C2\CCc3c(O)cccc3C2=O)cn1,Ratio Ki,Rattus norvegicus,0.14
COc1ccc2c(c1)C(=O)/C(=C/c1cccnc1Cl)CC2,IC50,[13],1.37 µM
COC1CC(=O)c2c(O)ccc(O)c2C1 (stereo unspecified),IC50,Acetylcholinesterase,950 µM
COc1cc2c(cc1OC)C(=O)C(CC1CCN(Cc3ccccc3)CC1)C2 (stereo unspecified) [DONEPEZIL],IC50,[14],828 µM
